Assay results: ChEMBL document CHEMBL4622899, “Synthesis and anticancer activity of open-resorcinarene conjugates” (Bioorg Med Chem Lett, 2020); call rule not given here

Legend:
HCT-15 = assay: Anticancer activity against human HCT15 cells assessed as cell growth inhibition measured after 48 hrs by MTT assay; type: functional, cell-based
PC-3 = assay: Anticancer activity against human PC3 cells assessed as cell growth inhibition measured after 48 hrs by MTT assay; type: functional, cell-based
U-251 = assay: Anticancer activity against human U251 cells assessed as cell growth inhibition measured after 48 hrs by MTT assay; type: functional, cell-based
COS-7 = assay: Cytotoxicity against African green monkey COS7 cells assessed as cell growth inhibition measured after 48 hrs by MTT assay; type: cell-based, Chlorocebus aethiops
K562 = assay: Anticancer activity against human K562 cells assessed as cell growth inhibition measured after 48 hrs by MTT assay; type: functional, cell-based
SK-LU-1 = assay: Anticancer activity against human SKLU1 cells assessed as cell growth inhibition measured after 48 hrs by MTT assay; type: functional, cell-based
MCF7 = assay: Anticancer activity against human MCF7 cells assessed as cell growth inhibition measured after 48 hrs by MTT assay; type: functional, cell-based
[1] = Homo sapiens, HCT-15, 48 h, read-out: IC50
[2] = Homo sapiens, PC-3, 48 h, read-out: IC50
[3] = Homo sapiens, U-251, 48 h, read-out: IC50
[4] = Chlorocebus aethiops, COS-7, 48 h, read-out: IC50
[5] = Homo sapiens, K562, 48 h, read-out: IC50
[6] = Homo sapiens, SK-LU-1, 48 h, read-out: IC50
[7] = Homo sapiens, MCF7, 48 h, read-out: IC50

Row | SMILES | IC50 (HCT-15; hct-15) | IC50 (PC-3; pc-3) | IC50 (U-251; u-251) | IC50 (K562; k562) | IC50 (SK-LU-1; sk-lu-1) | IC50 (MCF7; mcf7) | IC50 (HCT-15; [1]) | IC50 (PC-3; [2]) | IC50 (U-251; [3]) | IC50 (K562; [5]) | IC50 (SK-LU-1; [6]) | IC50 (MCF7; [7]) | IC50 (COS-7; cos-7) | IC50 (COS-7; [4])
1 | O=C(COc1cc(OCC(=O)NCCO)c(C(c2ccc(C(c3cc(Cl)c(OCC(=O)NCCO)cc3OCC(=O)NCCO)c3cc(Cl)c(OCC(=O)NCCO)cc3OCC(=O)NCCO)cc2)c2cc(Cl)c(OCC(=O)NCCO)cc2OCC(=O)NCCO)cc1Cl)NCCO | Not Active | Not Active | Not Active | Not Active | Not Active | Not Active |  |  |  |  |  |  | Not Active | 
2 | COc1ccc2c(c1)c(CC(=O)OCCNC(=O)COc1cc(OCC(=O)NCCOC(=O)Cc3c(C)n(C(=O)c4ccc(Cl)cc4)c4ccc(OC)cc34)c(C(c3ccc(C(c4cc(Cl)c(OCC(=O)NCCOC(=O)Cc5c(C)n(C(=O)c6ccc(Cl)cc6)c6ccc(OC)cc56)cc4OCC(=O)NCCOC(=O)Cc4c(C)n(C(=O)c5ccc(Cl)cc5)c5ccc(OC)cc45)c4cc(Cl)c(OCC(=O)NCCOC(=O)Cc5c(C)n(C(=O)c6ccc(Cl)cc6)c6ccc(OC)cc56)cc4OCC(=O)NCCOC(=O)Cc4c(C)n(C(=O)c5ccc(Cl)cc5)c5ccc(OC)cc45)cc3)c3cc(Cl)c(OCC(=O)NCCOC(=O)Cc4c(C)n(C(=O)c5ccc(Cl)cc5)c5ccc(OC)cc45)cc3OCC(=O)NCCOC(=O)Cc3c(C)n(C(=O)c4ccc(Cl)cc4)c4ccc(OC)cc34)cc1Cl)c(C)n2C(=O)c1ccc(Cl)cc1 |  |  |  |  |  |  | > 1000 µM | > 1000 µM | 23.1 µM | > 1000 µM | > 1000 µM | > 1000 µM |  | > 1000 µM
3 | O=C(COc1cc(OCC(=O)NCCOC(=O)CCCc2ccc(N(CCCl)CCCl)cc2)c(C(c2ccc(C(c3cc(Cl)c(OCC(=O)NCCOC(=O)CCCc4ccc(N(CCCl)CCCl)cc4)cc3OCC(=O)NCCOC(=O)CCCc3ccc(N(CCCl)CCCl)cc3)c3cc(Cl)c(OCC(=O)NCCOC(=O)CCCc4ccc(N(CCCl)CCCl)cc4)cc3OCC(=O)NCCOC(=O)CCCc3ccc(N(CCCl)CCCl)cc3)cc2)c2cc(Cl)c(OCC(=O)NCCOC(=O)CCCc3ccc(N(CCCl)CCCl)cc3)cc2OCC(=O)NCCOC(=O)CCCc2ccc(N(CCCl)CCCl)cc2)cc1Cl)NCCOC(=O)CCCc1ccc(N(CCCl)CCCl)cc1 |  |  |  |  |  |  | 201 µM | 34 µM | 24.3 µM | 51.4 µM | 80 µM | 81 µM |  | > 1000 µM
4 | Oc1cc(O)c(C(c2ccc(C(c3cc(Cl)c(O)cc3O)c3cc(Cl)c(O)cc3O)cc2)c2cc(Cl)c(O)cc2O)cc1Cl | Not Active | Not Active | Not Active | Not Active | Not Active | Not Active |  |  |  |  |  |  | Not Active | 
5 | O=C(O)CCCc1ccc(N(CCCl)CCCl)cc1 [CHLORAMBUCIL] |  |  |  |  |  |  | 3.11 µM | 16.4 µM | 33.1 µM | 103 µM | 300 µM | > 100 µM |  | 43.5 µM
6 | COc1ccc2cc([C@H](C)C(=O)O)ccc2c1 [NAPROXEN] |  |  |  |  |  |  | > 1000 µM | > 1000 µM | > 1000 µM | 181 µM | > 1000 µM | > 1000 µM |  | > 1000 µM

Second part, led by results:

Row | IC50 (HCT-15; hct-15) | IC50 (PC-3; pc-3) | IC50 (U-251; u-251) | IC50 (K562; k562) | IC50 (SK-LU-1; sk-lu-1) | IC50 (MCF7; mcf7) | IC50 (HCT-15; [1]) | IC50 (PC-3; [2]) | IC50 (U-251; [3]) | IC50 (K562; [5]) | IC50 (SK-LU-1; [6]) | IC50 (MCF7; [7]) | SMILES | IC50 (COS-7; cos-7) | IC50 (COS-7; [4])
7 |  |  |  |  |  |  | > 1000 µM | > 1000 µM | 50.3 µM | > 1000 µM | > 1000 µM | > 1000 µM | COc1ccc2cc([C@H](C)C(=O)OCCNC(=O)COc3cc(OCC(=O)NCCOC(=O)[C@@H](C)c4ccc5cc(OC)ccc5c4)c(C(c4ccc(C(c5cc(Cl)c(OCC(=O)NCCOC(=O)[C@@H](C)c6ccc7cc(OC)ccc7c6)cc5OCC(=O)NCCOC(=O)[C@@H](C)c5ccc6cc(OC)ccc6c5)c5cc(Cl)c(OCC(=O)NCCOC(=O)[C@@H](C)c6ccc7cc(OC)ccc7c6)cc5OCC(=O)NCCOC(=O)[C@@H](C)c5ccc6cc(OC)ccc6c5)cc4)c4cc(Cl)c(OCC(=O)NCCOC(=O)[C@@H](C)c5ccc6cc(OC)ccc6c5)cc4OCC(=O)NCCOC(=O)[C@@H](C)c4ccc5cc(OC)ccc5c4)cc3Cl)ccc2c1 |  | > 1000 µM
8 |  |  |  |  |  |  | > 1000 µM | > 1000 µM | > 1000 µM | > 1000 µM | > 1000 µM | > 1000 µM | CC(C)Cc1ccc(C(C)C(=O)OCCNC(=O)COc2cc(OCC(=O)NCCOC(=O)C(C)c3ccc(CC(C)C)cc3)c(C(c3ccc(C(c4cc(Cl)c(OCC(=O)NCCOC(=O)C(C)c5ccc(CC(C)C)cc5)cc4OCC(=O)NCCOC(=O)C(C)c4ccc(CC(C)C)cc4)c4cc(Cl)c(OCC(=O)NCCOC(=O)C(C)c5ccc(CC(C)C)cc5)cc4OCC(=O)NCCOC(=O)C(C)c4ccc(CC(C)C)cc4)cc3)c3cc(Cl)c(OCC(=O)NCCOC(=O)C(C)c4ccc(CC(C)C)cc4)cc3OCC(=O)NCCOC(=O)C(C)c3ccc(CC(C)C)cc3)cc2Cl)cc1 (configuration not stated) |  | > 1000 µM
9 | Not Active | Not Active | Not Active | Not Active | Not Active | Not Active |  |  |  |  |  |  | COC(=O)COc1cc(OCC(=O)OC)c(C(c2ccc(C(c3cc(Cl)c(OCC(=O)OC)cc3OCC(=O)OC)c3cc(Cl)c(OCC(=O)OC)cc3OCC(=O)OC)cc2)c2cc(Cl)c(OCC(=O)OC)cc2OCC(=O)OC)cc1Cl | Not Active | 
10 |  |  |  |  |  |  | > 1000 µM | > 1000 µM | > 1000 µM | > 1000 µM | 90.6 µM | 92.1 µM | CC(C)Cc1ccc(C(C)C(=O)O)cc1 (configuration not stated) [IBUPROFEN] |  | > 1000 µM
11 |  |  |  |  |  |  | > 1000 µM | > 1000 µM | 20.4 µM | 190 µM | > 1000 µM | > 1000 µM | COc1ccc2c(c1)c(CC(=O)O)c(C)n2C(=O)c1ccc(Cl)cc1 [INDOMETHACIN] |  | > 1000 µM
